Earlier results, collected in patent publication US20100178364A1, “Dietary supplements against latent foreign DNA” (priority 2009, published 2010).
Read-outs that look alike come from different tables or passages of the source.

Assays:
[1] = system: CMV
[2] = system: EBV immediate-early protein Rta
[3] = system: KSHV-positive B cells
[4] = system: LT1/LT2 promoter; settings: BJAB cells, GA-treated vs untreated
[5] = tested levels (3 and 4 mM)
[6] = system: LANA-1, v-cyclin, and v-FLIP proteins; settings: KSHV positive cells (BCBL-1, BC-3, BC-1) treated 2, 3, 6 days; effect reversible

C[C@H]1[C@H](OC(=O)CCC(=O)O)O[C@@H]2O[C@@]3(C)CC[C@H]4[C@H](C)CC[C@@H]1[C@@]24OO3 [artesunate]
viral decay T ½ ([1]; CMV load kinetics during artesunate treatment, oral 100 mg/day): 22 to 45.6 h
hematopoiesis ([1]; within 10 days): improved

O=C(O[C@@H]1Cc2c(O)cc(O)cc2O[C@@H]1c1cc(O)c(O)c(O)c1)c1cc(O)c(O)c(O)c1 [EGCG, Epigallocatechin gallate]
percentage of cells expressing Rta ([2]; TSA-treated P3HR1 cells, 100 mM EGCG): 0.5%
percentage of cells expressing Rta ([2]; TSA-treated P3HR1 cells, EGCG): 9.8%

Nc1nc(O)c2ncn(COC(CO)CO)c2n1 [ganciclovir]
decrease of viral DNA load ([1]; by day 7 of treatment, one patient): 1 log

CCCCCCCCCCCCCC(=O)O[C@@H]1[C@@H](C)[C@@]2(O)[C@@H](C=C(CO)C[C@]3(O)C(=O)C(C)=C[C@@H]23)[C@@H]2C(C)(C)[C@]12OC(C)=O [TPA, 12-O-tetradecanoyl-phorbol-13-acetate, reference compound]
disruption of mitochondrial membranes / DNA condensation ([3]; TPA treatment (latent to lytic switch)): did not disrupt the mitochondrial membranes or caused DNA condensation

CC1(C)[C@@H](O[C@H]2O[C@H](C(=O)O)[C@@H](O)[C@H](O)[C@H]2O[C@@H]2O[C@H](C(=O)O)[C@@H](O)[C@H](O)[C@H]2O)CC[C@]2(C)[C@H]3C(=O)C=C4[C@@H]5C[C@@](C)(C(=O)O)CC[C@]5(C)CC[C@@]4(C)[C@]3(C)CC[C@@H]12 [GA, glycyrrhizic acid]
LT1/LT2 promoter activity (luciferase expression) [4]: does not affect the LT1/LT2 promoter activity
disruption of mitochondrial membranes / DNA condensation ([3]; uninfected B cells): no disruptions of their mitochondrial membranes or DNA condensation
toxicity [5]: not being toxic at the tested levels
LANA-1 protein expression [6]: decreased

CC(/C=C/C(=O)NO)=C\[C@@H](C)C(=O)c1ccc(N(C)C)cc1 [TSA, reference compound]
percentage of cells expressing Rta ([2]; P3HR1 cells after TSA alone (lytic cycle activator)): 23.4%
